Columns and labels:
[1] = molecular target: T1, AM1 receptor (CLR-RAMP2) in HUAECs (Homo sapiens, UniProt O60895+Q16602); test: cAMP accumulation in HUAECs; format: cell-based
T1 construct: host or cells: primary HUAECs
Procedure: All primary cell lines were cultured as above. On the day of the experiment media was removed and cells washed with PBS, before being dissociated with Trypsin-EDTA 0.05% (Gibco, UK) and then resuspended in PBS/BSA (0.1%) (Sigma, UK). Cells were immediately plated for use in cAMP assay as per the manufacturer’s instructions, reagents used were provided by the LANCE® cAMP detection assay kit (PerkinElmer, Boston, MA, USA), in 384 well optiplates (PerkinElmer (Boston, MA, USA)) at 2000 cells/well in 5 μl aliquots. […] Cells were incubated with compound for 30 min prior to adding detection buffer[28],[60]. Plates were incubated for a further 60 min (room temperature) and then read on a plate reader (Mithras LB 940 microplate reader (Berthold technologies, Germany)). All responses were normalised to 100μM forskolin (Tocris, UK). Antagonist studies were performed in the same way through co-stimulation of the relevant concentration. Alongside control-treated cell. Experiments with PTX (Sigma, UK) required pretreatment (16 h) prior to assays.
All sample sizes were determined, and data analysed, in accordance with the guidelines described by Curtis M et al.[65]. All experiments were appropriately controlled using ‘system pathway’ agonists. If any of these pathway controls generated inappropriate responses, then the entire data set was removed from analysis. […] Data analysis for cAMP accumulation, Ca^2+i mobilisation, NO accumulation, pERK1/2 activation, and cell proliferation assays were performed in GraphPad Prism 8.4 (GraphPad Software, San Diego). Data were fitted to obtain concentration–response curves using either the three-parameter logistic equation using to obtain values of Emax and pEC50 or the operational model of agonism. Statistical differences were analysed using one-way ANOVA followed by Dunnett’s post-hoc (for comparisons amongst more than two groups) or unpaired Student’s t test with Welch’s correction (for comparison between two groups). To account for the day-to-day variation experienced from the cultured cells, we used the maximal level of cAMP accumulation from cells in response to 100 μM forskolin stimulation was used as a reference, 10 μM ionomycin for Ca^2+i assays, 10 μM phorbol 12-myristate 13-acetate (PMA) for pERK1/2 activation, 10 μM acetylcholine for NO production and 10 μM VEGF for cell proliferation. […] Where appropriate the operational model for receptor agonism[27] was used to obtain efficacy (τ) and equilibrium disassociation constant (KA) values. In both cases, this normalisation removes the variation due to differences in days but retains the variance for control values. […] Having obtained values for τ and KA these were then used to quantify signalling bias as the change in Log(τ/KA)[19],[28]. […]

[2] = molecular target: T1, AM1 receptor (CLR-RAMP2) in HUAECs; test: ERK1/2 phosphorylation in HUAECs; format: cell-based
Procedure: Primary cells were grown in 6 well plates, on the day of the experiment media was replaced with serum free media 4 h prior to cell harvesting. Tyrpsin-EDTA was used to dissociate the cells and they were collected by centrifugation, counted and re-suspended HBSS/BSA (0.1%). Ligands were also diluted in HBSS/BSA. Cells were then plated on 384 well plates in 8 μl aliquots at a density of 20,000 cells/well. Next, ligands were added (4 μl) for 5 min stimulation at room temperature. Cells were then lysed as per to the manufacturer’s instructions with 4 μl of lysis buffer (Cisbio phosphor-ERK1/2 cellular assay kit, Invitrogen, UK) for 30 min shaking at room temperature. The 2 specific antibodies; were pre-mixed in a 1:1 ratio. 4 μl of this was added to each well and the plate incubated for a further 2 h.
All sample sizes were determined, and data analysed, in accordance with the guidelines described by Curtis M et al.[65]. All experiments were appropriately controlled using ‘system pathway’ agonists. If any of these pathway controls generated inappropriate responses, then the entire data set was removed from analysis. […] Data analysis for cAMP accumulation, Ca^2+i mobilisation, NO accumulation, pERK1/2 activation, and cell proliferation assays were performed in GraphPad Prism 8.4 (GraphPad Software, San Diego). Data were fitted to obtain concentration–response curves using either the three-parameter logistic equation using to obtain values of Emax and pEC50 or the operational model of agonism. Statistical differences were analysed using one-way ANOVA followed by Dunnett’s post-hoc (for comparisons amongst more than two groups) or unpaired Student’s t test with Welch’s correction (for comparison between two groups). To account for the day-to-day variation experienced from the cultured cells, we used the maximal level of cAMP accumulation from cells in response to 100 μM forskolin stimulation was used as a reference, 10 μM ionomycin for Ca^2+i assays, 10 μM phorbol 12-myristate 13-acetate (PMA) for pERK1/2 activation, 10 μM acetylcholine for NO production and 10 μM VEGF for cell proliferation. […] Where appropriate the operational model for receptor agonism[27] was used to obtain efficacy (τ) and equilibrium disassociation constant (KA) values. In both cases, this normalisation removes the variation due to differences in days but retains the variance for control values. The means of individual experiments were combined to generate the curves shown. Having obtained values for τ and KA these were then used to quantify signalling bias as the change in Log(τ/KA)[19],[28]. Error for this composite measure was propagated by applying Eq. 1.1 PooledSEM=(SEMA)^2+(SEMB)^2 Where, SEMA and SEMB are the standard error of measurement A and B. […]

HUVECs = test: cell proliferation (72 h) of HUVECs; format: cell-based, human; conditions: HUVEC
Procedure: Data are analysed using a three-parameter non-linear regression curve or the operational model of receptor agonism. g–h Signalling bias plots were calculated as ∆Log(τ/KA) (g) or ∆∆Log(τ/KA) (h) for each agonist and for each signalling pathway. […] Solid arrows indicate known pathways. Dashed arrows represent possible pathways.
Both endothelial cell lines and HCMs were seeded at a density of 2500 cells/well in a clear flat bottom 96-well plate (Corning, UK) and incubated at 37 °C in 5% CO2. After 24 h, cells were exposed to test compounds or vehicle, in complete endothelial cell growth media (HUVECs) or myocyte growth media (HCMs). Cells were incubated for a further 72 h at 37 °C in 5% CO2. After 72 h incubation, 5 μl of Cell Counting Kit–8 (CCK-8, Sigma, UK) was added to each well and cells were then incubated for another 2 h at 37 °C in 5% CO2 and in the dark[61]. The absorbance of each well was measured using a Mithras LB940 microplate reader with an excitation of 450 nm. The absorbance is directly proportional to the number of viable cells. Cell proliferation was calculated as a percentage of number of cells treated with vehicle alone.
All sample sizes were determined, and data analysed, in accordance with the guidelines described by Curtis M et al.[65]. All experiments were appropriately controlled using ‘system pathway’ agonists. If any of these pathway controls generated inappropriate responses, then the entire data set was removed from analysis. […] Data analysis for cAMP accumulation, Ca^2+i mobilisation, NO accumulation, pERK1/2 activation, and cell proliferation assays were performed in GraphPad Prism 8.4 (GraphPad Software, San Diego). Data were fitted to obtain concentration–response curves using either the three-parameter logistic equation using to obtain values of Emax and pEC50 or the operational model of agonism. Statistical differences were analysed using one-way ANOVA followed by Dunnett’s post-hoc (for comparisons amongst more than two groups) or unpaired Student’s t test with Welch’s correction (for comparison between two groups). To account for the day-to-day variation experienced from the cultured cells, we used the maximal level of cAMP accumulation from cells in response to 100 μM forskolin stimulation was used as a reference, 10 μM ionomycin for Ca^2+i assays, 10 μM phorbol 12-myristate 13-acetate (PMA) for pERK1/2 activation, 10 μM acetylcholine for NO production and 10 μM VEGF for cell proliferation. […] Where appropriate the operational model for receptor agonism[27] was used to obtain efficacy (τ) and equilibrium disassociation constant (KA) values. In both cases, this normalisation removes the variation due to differences in days but retains the variance for control values. The means of individual experiments were combined to generate the curves shown. Having obtained values for τ and KA these were then used to quantify signalling bias as the change in Log(τ/KA)[19],[28]. Error for this composite measure was propagated by applying Eq. 1.1 PooledSEM=(SEMA)^2+(SEMB)^2 Where, SEMA and SEMB are the standard error of measurement A and B.

[3] = molecular target: T2, CGRP receptor (CLR-RAMP1) in human cardiomyocytes (HCMs) (Homo sapiens, UniProt O60894+Q16602); test: total NO production in HCMs; format: cell-based; conditions: HCM, 15 min, relative to 10 μM isoproterenol, mean ± SEM
T2 construct: primary human cardiomyocytes (HCMs) since these cells only expressed CLR and RAMP1; host or cells: primary human cardiomyocytes (HCMs)
Procedure: Data are analysed using a three-parameter non-linear regression curve or the operational model of receptor agonism. g, h Signalling bias plots were calculated as ∆Log(τ/KA) (g) or ∆∆Log(τ/KA) (h) for each agonist and for each signalling pathway. […] All data represent mean ± SEM for n repeats.
Endothelial cells and HCMs were cultured as above. 24 h prior to assay cells were plated on Costar 96-well black clear bottom plates at 40,000 cells/well. The assay was performed according to the manufacturer’s protocol. Briefly, cells pre-incubated with NO dye and assay buffer 1 (Fluorometric Nitric Oxide Assay Kit, Abcam, UK) for 30 min at 37 °C in 5% CO2. […] Stain and ligand solution was removed, assay buffer II was added, and wells were read immediately. The absorbance was measured using a Tecan T200 (Thermo Fisher Scientific UK) reader with an excitation/emission of 540/590 nm. […]
All sample sizes were determined, and data analysed, in accordance with the guidelines described by Curtis M et al.[65]. […] Statistical differences were analysed using one-way ANOVA followed by Dunnett’s post-hoc (for comparisons amongst more than two groups) or unpaired Student’s t test with Welch’s correction (for comparison between two groups). […] Having obtained values for τ and KA these were then used to quantify signalling bias as the change in Log(τ/KA)[19],[28]. […]

[4] = cAMP, HUAEC, operational model, mean ± SEM
[5] = pERK1/2, HUAEC, operational model, mean ± SEM
[6] = proliferation, operational model, mean ± SEM

T1 sequence (Q16602 23-461): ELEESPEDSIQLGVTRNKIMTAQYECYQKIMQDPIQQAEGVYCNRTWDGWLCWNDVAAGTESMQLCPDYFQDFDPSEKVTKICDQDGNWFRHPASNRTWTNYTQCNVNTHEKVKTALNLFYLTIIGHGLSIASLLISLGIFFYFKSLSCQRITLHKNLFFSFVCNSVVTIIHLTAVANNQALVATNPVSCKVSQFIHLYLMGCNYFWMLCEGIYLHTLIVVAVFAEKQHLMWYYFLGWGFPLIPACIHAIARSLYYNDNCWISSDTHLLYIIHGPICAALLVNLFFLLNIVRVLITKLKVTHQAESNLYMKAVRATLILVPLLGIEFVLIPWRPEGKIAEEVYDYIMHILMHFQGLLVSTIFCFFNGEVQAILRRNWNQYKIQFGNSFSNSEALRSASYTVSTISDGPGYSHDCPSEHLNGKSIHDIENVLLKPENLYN
T1 sequence (O60895 43-175): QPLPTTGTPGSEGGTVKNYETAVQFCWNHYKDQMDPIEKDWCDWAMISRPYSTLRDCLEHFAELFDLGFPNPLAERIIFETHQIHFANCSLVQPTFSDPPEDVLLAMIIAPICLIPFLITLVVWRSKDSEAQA
T2 sequence (Q16602 23-461): as the sequence (Q16602 23-461) above
T2 sequence (O60894 27-148): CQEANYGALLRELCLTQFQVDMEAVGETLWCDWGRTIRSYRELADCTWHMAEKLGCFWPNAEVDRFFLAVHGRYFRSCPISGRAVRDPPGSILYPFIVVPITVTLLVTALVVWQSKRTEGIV

Emax [3] [%]	SMILES	Emax [1] [%]	Transducer coefficient Log(τ/KA) ([1]; cAMP, HUAEC, calculated from Table S1)	logτ [1, 4]	pKA [1, 4]	Emax [2] [%]	Transducer coefficient Log(τ/KA) ([2]; pERK1/2, HUAEC, calculated from Table S1)	logτ [2, 5]	pKA [2, 5]	Transducer coefficient Log(τ/KA) (HUVECs; Growth, calculated from Table S1)	Emax (HUVECs; proliferation, 72 h, CCK-8, mean ± SEM) [%]	pEC50 (HUVECs; proliferation, 72 h, mean ± SEM of 3-6 data sets)	logτ (HUVECs; [6])	pKA (HUVECs; [6])
	CSCC[C@H](NC(=O)[C@H](CC(C)C)NC(=O)[C@H](CCC(N)=O)NC(=O)[C@H](Cc1c[nH]c2ccccc12)NC(=O)[C@H](CC(C)C)NC(=O)[C@H](CCCNC(=N)N)NC(=O)[C@H](Cc1c[nH]cn1)NC(=O)[C@H](CO)NC(=O)[C@H](CC(C)C)NC(=O)[C@H](CC(N)=O)NC(=O)[C@H](CCC(N)=O)NC(=O)[C@@H](NC(=O)[C@H](CCC(N)=O)NC(=O)[C@@H]1CSSC[C@H](NC(=O)CNC(=O)[C@@H](NC(=O)[C@H](CCCNC(=N)N)NC(=O)[C@H](CC(C)C)NC(=O)[C@H](CC(C)C)NC(=O)[C@H](CCC(N)=O)NC(=O)[C@H](C)NC(=O)[C@H](CCC(N)=O)NC(=O)[C@@H](N)[C@@H](C)O)C(C)C)C(=O)N[C@@H](C(C)C)C(=O)N[C@@H](CC(C)C)C(=O)NCC(=O)N[C@@H]([C@@H](C)O)C(=O)N1)C(C)C)C(=O)NCC(=O)N1CCC[C@H]1C(=O)N[C@@H](C)C(=O)NCC(=O)N[C@@H](CCCNC(=N)N)C(=O)N[C@@H](CCC(N)=O)C(=O)N[C@@H](CC(=O)O)C(=O)N[C@@H](CO)C(=O)N[C@@H](C)C(=O)N1CCC[C@H]1C(=O)N[C@H](C(=O)N[C@@H](CC(=O)O)C(=O)N1CCC[C@H]1C(=O)N[C@@H](CO)C(=O)N[C@@H](CO)C(=O)N1CCC[C@H]1C(=O)N[C@@H](Cc1c[nH]cn1)C(=O)N[C@@H](CO)C(=O)N[C@@H](Cc1ccc(O)cc1)C(N)=O)C(C)C [AM2, adrenomedullin 2]	17.5 ± 1.21	6.03±0.22	-0.75±0.05	6.78±0.21	17.6 ± 2.44	4.76±0.35	-0.67±0.12	5.43±0.33	5.74±0.92	103.74±1.43	7.06±0.9	-1.29±0.20	7.03±0.90
47 ± 5.85	CC[C@H](C)[C@H](NC(=O)[C@H](CCC(N)=O)NC(=O)[C@H](Cc1c[nH]cn1)NC(=O)[C@H](C)NC(=O)[C@H](CC(C)C)NC(=O)[C@H](CCCCN)NC(=O)[C@H](CCC(N)=O)NC(=O)[C@@H](NC(=O)[C@@H](NC(=O)[C@@H]1CSSC[C@H](NC(=O)CNC(=O)[C@H](Cc2ccccc2)NC(=O)[C@H](CO)NC(=O)[C@H](CCCNC(=N)N)NC(=O)[C@H](CC(C)C)NC(=O)CNC(=O)[C@H](CCC(N)=O)NC(=O)[C@H](Cc2ccccc2)NC(=O)[C@H](CC(N)=O)NC(=O)[C@H](CC(N)=O)NC(=O)[C@H](CCSC)NC(=O)[C@H](CO)NC(=O)[C@H](CCC(N)=O)NC(=O)[C@H](CCCNC(=N)N)NC(=O)[C@@H](N)Cc2ccc(O)cc2)C(=O)N[C@@H](CCCNC(=N)N)C(=O)N[C@@H](Cc2ccccc2)C(=O)NCC(=O)N[C@@H]([C@@H](C)O)C(=O)N1)[C@@H](C)O)C(C)C)C(=O)N[C@@H](Cc1ccc(O)cc1)C(=O)N[C@@H](CCC(N)=O)C(=O)N[C@@H](Cc1ccccc1)C(=O)N[C@H](C(=O)N[C@@H](CC(=O)O)C(=O)N[C@@H](CCCCN)C(=O)N[C@@H](CC(=O)O)C(=O)N[C@@H](CCCCN)C(=O)N[C@@H](CC(=O)O)C(=O)N[C@@H](CC(N)=O)C(=O)N[C@H](C(=O)N[C@@H](C)C(=O)N1CCC[C@H]1C(=O)N[C@@H](CCCNC(=N)N)C(=O)N[C@@H](CO)C(=O)N[C@@H](CCCCN)C(=O)N[C@H](C(=O)N[C@@H](CO)C(=O)N1CCC[C@H]1C(=O)N[C@@H](CCC(N)=O)C(=O)NCC(=O)N[C@@H](Cc1ccc(O)cc1)C(N)=O)[C@@H](C)CC)C(C)C)[C@@H](C)O [AM, adrenomedullin]													

From article PMC8222276 (Communications Biology, 2021)
